Reference: ChEMBL document CHEMBL1125501, “Probes for narcotic receptor mediated phenomena. 18. Epimeric 6 alpha- and 6 beta-iodo-3,14-dihydroxy-17-(cyclopropylmethyl)-4,5 alpha-epoxymorphinans as potential ligands for opioid receptor single photon emission computed tomography: synthesis, evaluation, and radiochemistry of [125I]-6 …” (J Med Chem, 1992)

Tests used:
[1] = target: T1, Delta-type opioid receptor (Rattus norvegicus, UniProt P33533); assay: In vito concentration required to displace [3H]DADLE (Kd = […] and concentration is […]) from high affinity delta-site in rat brain membranes.; type: cell membranes
T1 sequence (P33533 whole entry): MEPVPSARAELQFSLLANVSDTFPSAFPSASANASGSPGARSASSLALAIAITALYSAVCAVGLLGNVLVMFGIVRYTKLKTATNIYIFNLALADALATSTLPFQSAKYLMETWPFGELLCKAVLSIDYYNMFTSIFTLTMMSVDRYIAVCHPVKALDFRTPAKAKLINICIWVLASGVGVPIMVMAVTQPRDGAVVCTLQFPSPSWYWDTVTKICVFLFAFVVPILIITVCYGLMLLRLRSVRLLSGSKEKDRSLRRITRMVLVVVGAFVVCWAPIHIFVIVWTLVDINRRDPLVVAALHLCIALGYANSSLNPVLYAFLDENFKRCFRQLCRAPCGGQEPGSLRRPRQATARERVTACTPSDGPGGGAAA

[2] = target: T1, Delta-type opioid receptor; assay: In vito concentration required to displace [3H]-DADLE (Kd = 12.2 nM and concentration is 2.1 nM) from low affinity delta-site in rat brain membranes.; type: cell membranes
[3] = target: T1, Delta-type opioid receptor; assay: In vito concentration required to displace [3H]DADLE (Kd = 12.2 nM and concentration is 2.1 nM) from low affinity delta-site in rat brain membranes.; type: cell membranes
[4] = target: T2, Mu-type opioid receptor (Rattus norvegicus, UniProt P33535); type: cell membranes, Brain, Brain membranes
T2 sequence (P33535 whole entry): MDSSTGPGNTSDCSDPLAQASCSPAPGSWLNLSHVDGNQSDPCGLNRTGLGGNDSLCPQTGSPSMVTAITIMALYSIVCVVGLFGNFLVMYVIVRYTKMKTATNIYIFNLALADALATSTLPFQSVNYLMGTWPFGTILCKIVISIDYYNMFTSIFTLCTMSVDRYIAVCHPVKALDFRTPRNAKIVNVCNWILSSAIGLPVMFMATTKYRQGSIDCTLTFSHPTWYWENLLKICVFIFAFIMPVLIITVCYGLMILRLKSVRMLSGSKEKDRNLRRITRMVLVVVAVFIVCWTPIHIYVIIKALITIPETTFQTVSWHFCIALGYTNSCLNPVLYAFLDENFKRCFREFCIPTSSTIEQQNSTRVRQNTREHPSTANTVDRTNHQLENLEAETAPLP

[5] = target: T2, Mu-type opioid receptor; type: cell membranes, Brain, Brain membranes; remark: listed apart in the source
[6] = target: T3, Kappa-type opioid receptor (Cavia porcellus, UniProt P41144); assay: In vito concentration required to displace 9 (Kd = […] and concentration is 1.8 nM) from opioid receptor kappa 2 in guinea brain membranes.; type: cell membranes
T3 sequence (P41144 whole entry): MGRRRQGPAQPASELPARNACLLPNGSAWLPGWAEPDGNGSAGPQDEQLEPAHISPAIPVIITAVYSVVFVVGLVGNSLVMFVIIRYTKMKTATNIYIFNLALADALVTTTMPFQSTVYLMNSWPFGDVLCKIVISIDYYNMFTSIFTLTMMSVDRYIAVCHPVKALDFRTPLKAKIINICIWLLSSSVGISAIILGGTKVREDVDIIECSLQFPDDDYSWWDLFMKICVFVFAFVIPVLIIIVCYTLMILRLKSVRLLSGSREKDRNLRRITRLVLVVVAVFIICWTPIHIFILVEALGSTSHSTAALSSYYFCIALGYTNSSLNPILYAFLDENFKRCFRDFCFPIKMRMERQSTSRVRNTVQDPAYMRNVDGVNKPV

[7] = target: T3, Kappa-type opioid receptor; assay: In vito concentration required to displace [3H]BRM (Kd = 1.0 nM and concentration is 1.8 nM) from opioid receptor kappa 2 in guinea brain membranes.; type: cell membranes
[8] = target: T3, Kappa-type opioid receptor; assay: In vito concentration required to displace [3H]-BRM (Kd = 1.0 nM and concentration is 1.8 nM) from opioid receptor kappa 2 in guinea brain membranes.; type: cell membranes
[9] = target: T3, Kappa-type opioid receptor; assay: In vito concentration required to displace 9 (Kd = […] and concentration is 1.8 nM) from opioid receptor kappa 1 in guinea brain membranes.; type: cell membranes
[10] = target: T2, Mu-type opioid receptor; assay: In vito concentration required to displace [3H]DAGO (Kd = 0.7 nM and concentration is […]) from opioid receptor mu in rat brain membranes.; type: cell membranes

| Compound | IC50 [1] | IC50 [2] | Ki [3] | IC50 [4] | Ki [5] | Ki [6] | IC50 [7] | Ki [8] | Ki [1] | Ki [9] | IC50 [10] | Ki [10] | IC50 [9] |
| --- | --- | --- | --- | --- | --- | --- | --- | --- | --- | --- | --- | --- | --- |
| Oc1ccc2c3c1O[C@H]1[C@H](I)CC[C@@]4(O)[C@@H](C2)N(CC2CC2)CC[C@]314 | 25.6 nM | 2.64 nM | 2.25 nM | 0.77 nM | 0.29 nM | 2.73 nM | 7.65 nM | – | – | – | – | – | – |
| Oc1ccc2c3c1O[C@H]1[C@@H](I)CC[C@@]4(O)[C@@H](C2)N(CC2CC2)CC[C@]314 | – | 8.06 nM | 6.88 nM | 4.34 nM | 1.65 nM | – | 23.7 nM | 8.46 nM | – | – | – | – | – |
| Oc1ccc2c3c1O[C@H]1[C@H](F)CC[C@@]4(O)[C@@H](C2)N(CC2CC2)CC[C@]314 | 268 nM | 16.2 nM | 13.8 nM | 8.98 nM | 3.42 nM | – | 66 nM | – | 122 nM | 3.71 nM | 11.4 nM | 3.32 nM | – |
| Oc1ccc2c3c1O[C@H]1[C@@H](Br)CC[C@@]4(O)[C@@H](C2)N(CC2CC2)CC[C@]314 | 4.3 nM | 5.77 nM | 4.92 nM | 3.14 nM | 1.19 nM | – | 20.2 nM | 7.21 nM | 1.96 nM | 0.32 nM | 4.21 nM | 1.23 nM | 0.7 nM |
